The results in this text go back to PubChem BioAssay (NCI).

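Five concentrations, 48 hours, 96-well plates. Definition used: TGI = concentration required for complete inhibition of growth.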 Some results are limits rather than exact numbers.

Assay in all cases: NCI anticancer screen, dose series, 48 h
Test [1] concerns UACC-257 melanoma.
The test system of test [2] is OVCAR-3 ovarian.
Test [3] concerns U251 CNS.
Test [4] deals with OVCAR-5 ovarian.
For test [5], the system named is NCI-H522 lung.
Test [6] concerns 786-0 renal.
Test [7] concerns CAKI-1 renal.
The test system of test [8] is M14 melanoma.
In test [9] the test system is SNB-19 CNS.
Test [10] deals with SN12C renal.
Test [11] deals with HCT-116 colon.
Test [12] concerns SW-620 colon.
The subject of test [13] is OVCAR-4 ovarian.
Test [14] has as its system SK-MEL-28 melanoma.
Test [15] concerns HCT-15 colon.
Test [16] deals with RXF 393 renal.
For test [17], the system named is SR leukemia.
In test [18] the test system is NCI-H226 lung.

For `COc1cc2cccc(NC(=O)c3cc(OC)c(OC)c(OC)c3Br)c2cc1OC`, the TGI was 16.7 µM in test [1]; 47.5 µM in test [2]; 78.9 µM in test [3]; 51.9 µM in test [4]; 42.1 µM in test [5]; over 100 µM in test [6]. Besides, the TGI in [7] was 64.6 µM; in test [8], 23.5 µM; in test [9], over 100 µM; in test [10] it was over 100 µM; in test [11], 36.6 µM; in [12], 71 µM. Further, the TGI in test [13] was 34.3 µM; in [14], 41.8 µM.
`CS/C(c1ccccc1)=[N+](/C)[O-]`: the TGI in test [1] was over 100 µM; in [2] it was over 100 µM; in test [3], over 100 µM; in test [4], over 100 µM; in test [5], over 100 µM; in test [15], 41.1 µM. Moreover, the TGI in [16], in test [6], in test [7], in [8], in test [9] and in test [10] was over 100 µM each time. The TGI was 47.6 µM in [17]; over 100 µM in test [11]; over 100 µM in test [12]; over 100 µM in test [13]; over 100 µM in [14].
Turning to `C/C(=N\O)C(CN1CCCCC1)C(c1ccccc1)c1c(O)c2ccccc2oc1=O` (configuration not stated), the TGI in [1], in test [18], in test [2], in test [4], in test [5] and in test [16] was over 100 µM in each case. The TGI in test [6], in [7], in [8], in [9], in test [10] and in test [11] was over 100 µM each time. Moreover, the TGI in test [12], in test [13] and in test [14] was over 100 µM throughout.
On to `CCN(CC)c1cccc2c1C1(O)CCC3(CC21)OCCCCO3` (configuration not stated), for which the TGI in [1], in test [18], in [2], in [3], in [4] and in [5] was over 100 µM throughout. In addition, the TGI in [15] is over 100 µM; in test [16] it was 53.6 µM; in test [6] it was over 100 µM; in test [7], over 100 µM; in [8] it was over 100 µM; in test [9], 41 µM. Besides, the TGI in test [10], in test [11], in test [12], in test [13] and in test [14] was over 100 µM in each case.
Regarding `CC1=NN(C(=O)c2ccc(Cl)cc2)C(=O)/C1=C/c1ccc(O)cc1`, the TGI in test [1], in test [18], in test [2], in [3], in test [4] and in [5] was over 100 µM each time. The TGI in test [15], in [16], in test [6], in test [7], in test [8] and in [9] was over 100 µM in each case. The TGI in test [10], in test [11], in test [12], in test [13] and in [14] was over 100 µM each time.
In the case of `COC1=CC(=O)[C@]2(C)[C@H](C1=O)C(C)[C@H]2c1ccccc1` (some centres not stated), the TGI in test [1], in [18], in test [2], in test [3], in test [4] and in test [5] was over 100 µM throughout. The TGI in test [15], in test [16], in [6], in [7], in test [8] and in test [9] was over 100 µM throughout. Also, the TGI in [17], in [12], in test [13] and in test [14] was over 100 µM each time.
For the compound `Cc1ccc(S(=O)(=O)c2c3[nH]c4ccccc4nc3n3c2nc2ccccc23)cc1`, the TGI in test [1], in [2], in test [3], in test [4], in test [5] and in [15] was over 100 µM each time. For the same compound, the TGI in test [6], in test [7], in test [8], in [9], in [10] and in [17] was over 100 µM each time. The TGI in test [11], in test [12], in test [13] and in test [14] was over 100 µM in each case.
